Where two headings read alike, the source gives them in different places.

In experiment [1] the target is T1, S. typhimurium receptor LsrB (Salmonella typhimurium, UniProt Q8ZKQ1).
T1 construct: The final model contains all LsrB residues present in the protein (27-340); GST (N, cleaved yes); made in house; host or cells: E. coli BL21
As to the kind of experiment: X-ray crystal structure of the LsrB:ligand complex. It is filed as binding. As to conditions: holo-LsrB crystal, 1.3 Å resolution. The source says: Both apo-LsrB and holo-LsrB crystallized by the hanging drop method in 0.1 M Tris-HCl (pH 8.5), 22%-25% PEG 4000 (w/v) in space group P212121. The apo-LsrB crystals initially obtained (a=38.0, b=74.0, c=116.2) were used to seed crystallization in 0.1 M Tris-HCl, pH 8.5, 18%-24% PEG 4000. Crystals were cryoprotected by brief soaks in 0.1 M Tris-HCl, pH 8.5, 20% PEG 4000, 16% (v/v) glycerol and flash frozen in liquid nitrogen. Native crystals diffracted to 1.9 Å and data were collected at 100 K using an R-AXIS-IV image plate detector mounted on a Rigaku 200HB generator. Selenomethionine LsrB crystals were grown and frozen in the same conditions as native crystals. Selenomethionine crystals diffracted to 2.1 Å resolution at NSLS beam line X25, where MAD data were collected using an ADSC Q315 CCD detector. Holo-LsrB crystals (a=37.8, b=76.6, c=109.7) were prepared by addition of approximately 0.25 mM in vitro LuxS reaction product (Schauder et aL, 2001) to the native LsrB crystallization conditions, giving a DPD:LsrB molar ratio of slightly over 1:1. […]
To identify the LsrB ligand, LsrB was crystallized in the presence of DPD and the other products generated by incubating SAH with recombinant Pfs and LuxS enzymes as previously described (Schauder et al., 2001) (FIG. 1A). The structure was determined by molecular replacement and refined to 1.3 Å resolution (Table 1). […]

For experiment [2], the system named is lsr operon in S. typhimurium strain MET844 (LuxS−). As to the kind of experiment: S. typhimurium AI-2 bioassay (lsr-lacZ, β-galactosidase activity, strain MET844). As to conditions: for lsr expression (β-galactosidase activity): borate-depleted LB medium, 4 hr, approximately 10 μM DPD and LsrB ligand, 4 μM LuxP ligand. The class given is cell-based. How it is done: (§1) V. harveyi strain MM32 (luxN::Cm, luxS::Tn5Kan) was used for bioluminescence assays. This strain was constructed by introducing luxS::Tn5Kan onto the chromosome of strain JAF305 (luxN::Cm) (Bassler et al., 1993; Freeman et al., 1999). S. typhimurium strain MET844 (rpsL, putRA::Kan-lsr-lacZYA, ΔlsrFGE::Cm, luxS::TPOP) was used for lsr-lacZ assays (Taga et al., 2003). V. harveyi was grown in borate-depleted autoinducer bioassay (AB) medium (Greenberg et al., 1979), and S. typhimurium was grown in borate-depleted Luria-Bertani (LB) medium. To remove borate, the media were filtered through a borate anion-specific resin, Amberlite IRA743 (Sigma-Aldrich). Specifically, 500 ml of medium was passed three times through 30 ml of resin and the column was regenerated between each passage according to a method described previously (Bennett et al., 1999). Following filtration, the pH of the medium was adjusted using KOH made with borate-depleted water. For all experiments involving borate-depleted reagents, only plastic supplies were used. To test the effect of boron on the bioluminescence and lsr-lacZ assays, boric acid was added to the borate-depleted media to a final concentration of 5 mM.
AI-2-dependent induction of the lsr operon in S. typhimurium was measured by determining the β-galactosidase activity of the lsr-lacZ promoter fusion in S. typhimurium strain MET844. Overnight cultures were grown in borate-depleted LB medium at 37° C. with aeration and were diluted 1:100 into fresh borate-depleted LB medium in the presence or absence of 5 mM boric acid. To the diluted cells (900 μl), 10% (v/v) autoinducer samples were added (100 μl), and cells were grown for 4 hr. Cell lysates were prepared and β-galactosidase activity was measured as described previously (Taga et al., 2003). β-galactosidase units are defined as [(OD420 min^−1×dilution factor)/OD600].
(§2) Ligands were released from LsrB and LuxP as described above. All ligand concentrations were estimated by ^11B-NMR in NMR buffer supplemented with 5 mM boric acid; the area of the boric acid peak served as an internal concentration standard.

Experiment [3] deals with V. harveyi. As to conditions: cited from earlier work.
Experiment [4] deals with V. harveyi strain MM32 (LuxN−, LuxS−). It is filed as cell-based. As to conditions: for light production: ligand approximately 0.2 nM, 8 hr of growth. Here is the method: as §1
V. harveyi MM32 was grown 14 hr in borate-depleted AB at 30° C. with aeration and subsequently diluted 1:5,000 into fresh borate-depleted AB medium in the presence or absence of 5 mM boric acid. 10% autoinducer samples (v/v) were added to the diluted cells and light production was measured hourly in a Wallac Model 1450 Microbeta Plus liquid scintillation counter. […] Bioluminescence is reported as the light produced by the cells divided by the background obtained in medium alone.
as §2
To directly examine the influence of borate on AI-2-dependent signaling in V. harveyi and S. typhimurium, borate-depleted medium was prepared. AI-2 responses (bioluminescence in V. harveyi, lsr operon induction in S. typhimurium) were measured both with and without added boric acid. In this experiment, V. harveyi strain, MM32 was used because this strain lacks the LuxS enzyme needed to biosynthesize DPD and thus produces no endogenous AI-2 signal. This strain also has the AI-1 pathway inactivated. Bioluminescence was measured following addition of enzymatically synthesized DPD or, alternatively, ligand released from either LsrB or LuxP.

Experiment [5] concerns the target V. harveyi receptor LuxP (Vibrio harveyi, UniProt P54300). As to conditions: Chen et al., 2002; cited from earlier work.
For experiment [6], the system named is V. harveyi. As to conditions: presence or absence of 5 mM boric acid; AB medium. How it is done:
as §1

Experiment [7] deals with S. typhimurium. Here is the method: as §1
[8] abbreviates: borate-depleted AB medium plus 5 mM boric acid.
The mark [9] stands for this setting: 5 mM boric acid added to borate-depleted medium.

Sequence of V. harveyi receptor LuxP (P54300 24-365): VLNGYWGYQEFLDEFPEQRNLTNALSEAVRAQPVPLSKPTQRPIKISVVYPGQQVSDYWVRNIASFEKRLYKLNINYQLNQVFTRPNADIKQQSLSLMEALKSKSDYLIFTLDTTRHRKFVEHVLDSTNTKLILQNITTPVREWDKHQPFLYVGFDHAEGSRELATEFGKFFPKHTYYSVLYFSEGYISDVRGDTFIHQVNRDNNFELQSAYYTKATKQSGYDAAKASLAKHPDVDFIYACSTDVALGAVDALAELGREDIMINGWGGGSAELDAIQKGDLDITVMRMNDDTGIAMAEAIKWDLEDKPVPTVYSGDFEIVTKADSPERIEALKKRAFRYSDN

As to `C[C@@]1(O)OC[C@H](O)C1(O)O` [R-THMF, (2R,4S)-2-methyl-2,3,3,4-tetrahydroxytetrahydrofuran], the “binding to LsrB” value in experiment [1] is recorded as “binds”.
Take `CC(=O)C(=O)C(O)CO` (centres unmarked) [DPD, 4,5-dihydroxy-2,3-pentanedione]: the “lsr expression (β-galactosidase activity)” value (“lsr expression” below) in experiment [2] was “induces lsr expression”. The “bioluminescence in V. harveyi” value in experiment [3] (chemically synthesized DPD, only in the presence of boric acid (Meijler et al., 2004)) was “induces bioluminescence”. Also, the values for the light production result in experiment [4] (setting [8]) and in experiment [4] (borate-depleted AB medium) were “stimulate light production” and “No light was produced”, respectively. The “DPD final concentration inducing a linear response in light production” value in experiment [4] (in the presence of 5 mM borate, 6-8 hr incubation) fell in the range of 0.1 to 1 nM.
For the molecule `N[C@@H](CCS)C(=O)O` [homocysteine], the autoinducer activity entry in experiment [3] (product of the LuxS reaction) is “no autoinducer activity”.
For the molecule `C[C@@]1(O)OC[C@H](O)C1(O)O` [LsrB ligand], the “lsr expression” value in experiment [2] is reported as “induces lsr expression”. The light production entry in experiment [4] (setting [8]) is reported as “stimulate light production”; in experiment [4] (borate-depleted AB medium) it was “No light was produced”.
Turning to `CC12OCC(O)C1(O)O[B-](O)(O)O2` [S-THMF-borate, α-L-glycero-1-dehydro-3-hydro-penta-2,3-diulo-2,5-furanosyl-2,3-cyclic borate], the “binding to LuxP” value in experiment [5] is recorded as “binds”.
Take `OB(O)O` [boric acid]: the effect on growth entry in experiment [6] and in experiment [7] was “no effect” throughout. In addition, the “effect of boric acid on the ability of DPD or either receptor's ligand to activate the S. typhimurium assay” value in experiment [2] (setting [9]) is reported as “inhibits”. The “effect of boric acid on the ability of DPD or either receptor's ligand to activate the V. harveyi assay” value in experiment [4] (setting [9]) was “strongly enhances”.
On to `C[C@]12OC[C@H](O)[C@@]1(O)O[B-](O)(O)O2` [LuxP ligand], for which the “lsr expression” value in experiment [2] is given as “induces lsr expression”. Moreover, in experiment [4] (borate-depleted AB medium), the light production entry is listed as “failed to stimulate light production”.
